According to the NIST ThermoML archive (doi:10.1021/je049776w):

Assay: xn = mol fraction of the nth substance listed
Conditions: 101.3 kPa, Liquid

Cc1ccc(C)cc1 [1,4-dimethylbenzene] + C1CCCCC1
Conditions	mass density, 298.15 K [kg/m3]	mass density, 303.15 K [kg/m3]	mass density, 313.15 K [kg/m3]	mass density, 323.15 K [kg/m3]	mass density, 333.15 K [kg/m3]	viscosity, 298.15 K [mPa·s]	viscosity, 303.15 K [mPa·s]	viscosity, 313.15 K [mPa·s]	viscosity, 323.15 K [mPa·s]	viscosity, 333.15 K [mPa·s]
x1 = 0.0809	779.58	774.92	765.5	755.99	746.36	0.8232	0.7475	0.6401	0.5594	0.4874
x1 = 0.1655	786.02	781.39	772.07	762.67	753.14	0.757	0.6992	0.5981	0.526	0.4646
x1 = 0.2537	792.96	788.36	779.14	769.83	760.42	0.7177	0.6524	0.5739	0.5037	0.452
x1 = 0.3457	800.58	796.02	786.88	777.65	768.33	0.6773	0.6311	0.5481	0.4861	0.4338
x1 = 0.4422	808.68	804.15	795.1	785.98	776.74	0.6575	0.6059	0.5313	0.4722	0.423
x1 = 0.5431	817.38	812.89	803.91	794.86	785.72	0.6326	0.5868	0.5185	0.4638	0.4186
x1 = 0.6491	826.54	822.09	813.16	804.19	795.14	0.6219	0.5787	0.5108	0.458	0.4131
x1 = 0.7603	836.16	831.71	822.86	813.98	805	0.6175	0.5726	0.511	0.4569	0.4109
x1 = 0.8771	846.17	841.79	833	824.18	815.3	0.6139	0.5701	0.5052	0.4567	0.4124
x1 = 1	856.7	852.35	843.64	834.9	826.09	0.6162	0.5715	0.508	0.4599	0.4298
